biological target: T1, adenosine deaminase of type VII (mucous membrane of intestinal tract of calf) (Bos taurus, UniProt P56658); experiment: Adenosine deaminase inhibiting action; assay type: biochemical; conditions: 25° C., 0.05M phosphate buffer pH 7.5, adenosine substrate, 5 minutes, Lineweaver-Burk plots
T1 construct: from tissue; host or cells: mucous membrane of intestinal tract of calf
T1 sequence (P56658 1-363): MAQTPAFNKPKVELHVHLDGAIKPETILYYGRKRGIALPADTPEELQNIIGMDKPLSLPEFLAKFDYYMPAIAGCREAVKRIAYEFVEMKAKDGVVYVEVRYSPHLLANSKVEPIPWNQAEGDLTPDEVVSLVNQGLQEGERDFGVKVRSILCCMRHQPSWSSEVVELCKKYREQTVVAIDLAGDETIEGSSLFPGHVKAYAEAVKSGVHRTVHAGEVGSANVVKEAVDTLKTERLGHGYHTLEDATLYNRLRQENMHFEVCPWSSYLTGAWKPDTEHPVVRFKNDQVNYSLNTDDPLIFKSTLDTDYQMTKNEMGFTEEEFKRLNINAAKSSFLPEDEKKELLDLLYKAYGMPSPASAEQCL
Protocol: 1. Adenosine Deaminase Inhibiting Action
The enzymatic reaction was conducted at 25° C. in a 0.05M phosphate buffer (pH=7.5). Thus, a reaction solution comprising 800 μl of substrate solution (adenosine), 100 μl of a solution to be tested and 100 μl of enzyme solution (adenosine deaminase of type VII; mucous membrane of intestinal tract of calf) was reacted for 5 minutes and the reaction was stopped by adding 100 μl of acetic acid. Then the amount of inosine produced was determined by means of an HPLC to measure the inhibiting activity. The test was conducted for various substrate concentrations and Ki values were measured by Lineweaver-Burk plots.

In order of rising Ki:
1. CNc1nc(Nc2ccccc2)nc2c1ncn2[C@@H]1O[C@H](CO)[C@@H](O)[C@H]1OC [Compound 55, 2-Phenylamino-N^6,2'-O-dimethyladenosine]  0.013 µM
2. CCCCO[C@@H]1[C@H](O)[C@@H](CO)O[C@H]1n1cnc2c(NC)ncnc21 [Compound 22, N^6 -Methyl-2'-O-n-butyladenosine]  0.0558 µM
3. CCCCCCc1nc(NC)c2ncn([C@@H]3O[C@H](CO)[C@@H](O)[C@H]3OC)c2n1 [Compound 30, N^6,2'-O-Dimethyl-2-hexyladenosine]  0.09 µM
4. CCCCCCCCO[C@@H]1[C@H](O)[C@@H](CO)O[C@H]1n1cnc2c(NC)ncnc21 [Compound 24, N^6 -Methyl-2'-O-n-octyladenosine]  0.11 µM
5. CNc1nc(Nc2ccccc2)nc2c1ncn2[C@@H]1O[C@H](CO)[C@@H](OC)[C@H]1O [Compound 56, 2-Phenylamino-N^6,3'-O-dimethyladenosine]  0.11 µM
6. CCCCC#Cc1nc(NC)c2ncn([C@@H]3O[C@H](CO)[C@@H](O)[C@H]3OC)c2n1 [Compound 32, N^6,2'-O-Dimethyl-2-(1-hexyn-1-yl)-adenosine]  0.12 µM
7. CNc1nc(Br)nc2c1ncn2[C@@H]1O[C@H](CO)[C@@H](O)[C@H]1OC [Compound 45, 2-Bromo-N^6,2'-O-dimethyladenosine]  0.12 µM
8. CCO[C@@H]1[C@H](OCC)[C@@H](CO)O[C@H]1n1cnc2c(NC)ncnc21 [Compound 61, N^6 -Methyl-2',3'-O-diethyladenosine]  0.15 µM
9. CO[C@@H]1[C@H](O)[C@@H](CO)O[C@H]1n1cnc2c(N)nc(Nc3ccccc3)nc21 [Compound 53, 2-Phenylamino-2'-O-methyladenosine]  0.17 µM
10. CO[C@@H]1[C@H](O)[C@@H](CO)O[C@H]1n1cnc2c(N)nc(I)nc21 [Compound 47, 2-Iodo-2'-O-methyladenosine]  0.23 µM
11. CCCCCCCCCCc1nc(NC)c2ncn([C@@H]3O[C@H](CO)[C@@H](O)[C@H]3OC)c2n1 [Compound 31, N^6,2'-O-Dimethyl-2-decyladenosine]  0.28 µM
12. CCO[C@@H]1[C@H](O)[C@@H](CO)O[C@H]1n1cnc2c(NC)ncnc21 [Compound 21, N^6 -Methyl-2'-O-ethyladenosine]  0.33 µM
13. CCCCCNc1nc(N)c2ncn([C@@H]3O[C@H](CO)[C@@H](O)[C@H]3OC)c2n1 [Compound 52, 2-Pentylamino-2'-O-methyladenosine]  0.6 µM
14. CO[C@@H]1[C@H](O)[C@@H](CO)O[C@H]1n1cnc2c(N)nc(-c3ccccc3)nc21 [Compound 37, 2-Phenyl-2'-O-methyladenosine]  0.66 µM
15. CNc1ncnc2c1ncn2[C@@H]1O[C@H](CO)[C@@H](OC)[C@H]1OC [Compound 60, N^6,2',3'-O-Trimethyladenosine]  0.75 µM
16. CNc1nc(C)nc2c1ncn2[C@@H]1O[C@H](CO)[C@@H](OC)[C@H]1OC [Compound 64, 2,N^6,2',3'-O-Tetramethyladenosine]  0.88 µM
17. CCCCCCO[C@@H]1[C@H](O)[C@@H](CO)O[C@H]1n1cnc2c(NC)ncnc21 [Compound 23, N^6 -Methyl-2'-O-n-hexyladenosine]  0.89 µM
18. CNc1ncnc2c1ncn2[C@@H]1O[C@H](CO)[C@@H](O)[C@H]1OC [Compound 18, N^6,2'-O-Dimethiladenosine]  1.24 µM
19. CO[C@@H]1[C@H](OC)[C@@H](CO)O[C@H]1n1cnc2c(N)nc(C)nc21 [Compound 63, 2,2',3'-O-Trimethyladenosine]  1.3 µM
20. CO[C@H]1[C@@H](O)[C@H](n2cnc3c(N)nc(Nc4ccccc4)nc32)O[C@@H]1CO [Compound 54, 2-Phenylamino-3'-O-methyladenosine]  2.2 µM
21. CO[C@@H]1[C@H](O)[C@@H](CO)O[C@H]1n1cnc2c(N)nc(Br)nc21 [Compound 43, 2-Bromo-2'-O-methyladenosine]  3.2 µM
22. CCCCO[C@@H]1[C@H](O)[C@@H](CO)O[C@H]1n1cnc2c(N)ncnc21 [Compound 4, 2'-O-n-Butyladenosine]  3.47 µM
23. CNc1nc(Br)nc2c1ncn2[C@@H]1O[C@H](CO)[C@@H](OC)[C@H]1O [Compound 46, 2-Bromo-N^6,3'-O-dimethyladeonsine]  3.7 µM
24. CO[C@H]1[C@@H](O)[C@H](n2cnc3c(N)nc(I)nc32)O[C@@H]1CO [Compound 48, 2-Iodo-3'-O-methyladeonsine]  4.4 µM
25. CO[C@H]1[C@@H](O)[C@H](n2cnc3c(N)nc(N)nc32)O[C@@H]1CO [Compound 51, 2-Amino-3'-O-methyladenosine]  5 µM
26. CO[C@@H]1[C@H](OC)[C@@H](CO)O[C@H]1n1cnc2c(N)ncnc21 [Compound 59, 2',3'-O-Dimethyladenosine]  7.5 µM
27. CO[C@H]1[C@@H](O)[C@H](n2cnc3c(N)nc(-c4ccccc4)nc32)O[C@@H]1CO [Compound 38, 2-Phenyl-3'-O-methyladenosine]  7.9 µM
28. CO[C@@H]1[C@H](O)[C@@H](CO)O[C@H]1n1cnc2c(N)ncnc21 [Compound 1, 2'-O-Methyladenosine]  13.1 µM
29. CCCCCCCCCCC#Cc1nc(NC)c2ncn([C@@H]3O[C@H](CO)[C@@H](O)[C@H]3OC)c2n1 [Compound 33, N^6,2'-O-Dimethyl-2-(1-dodecyn-1-yl)-adenosine]  15 µM
30. CO[C@@H]1[C@H](O)[C@@H](CO)O[C@H]1n1cnc2c(N)nc(O)nc21 [Compound 39, 2-Hydroxy-2'-O-methyladenosine]  19 µM
31. CO[C@H]1[C@@H](O)[C@H](n2cnc3c(N)nc(Br)nc32)O[C@@H]1CO [Compound 44, 2-Bromo-3'-O-methyladeonsine]  22 µM
32. CO[C@@H]1[C@H](O)[C@@H](CO)O[C@H]1n1cnc2c(N)nc(C)nc21 [Compound 5, 2,2'-O-Dimethyl adenosine]  24.6 µM
33. CO[C@@H]1[C@H](O)[C@@H](CO)O[C@H]1n1cnc2c(N)nc(N)nc21 [Compound 50, 2-Amino-2'-O-methyladenosine]  28 µM
34. CO[C@@H]1[C@H](O)[C@@H](CO)O[C@H]1n1cnc2c(N)nc(C#CCO)nc21 [Compound 57, 2-(3-Hydroxy-1-propyn-1-yl)-2'-O-methyladenosine]  30 µM
35. CCNc1ncnc2c1ncn2[C@@H]1O[C@H](CO)[C@@H](O)[C@H]1OC [Compound 19, N^6 -Ethyl-2'-O-methyladenosine]  77.8 µM
36. CO[C@H]1[C@@H](O)[C@H](n2cnc3c(N)nc(C)nc32)O[C@@H]1CO [Compound 6, 2,3'-O-Dimethyl adenosine]  179 µM
37. CCCCNc1ncnc2c1ncn2[C@@H]1O[C@H](CO)[C@@H](O)[C@H]1OC [Compound 20, N^6-n-Butyl-2'-O-methyladenosine]  269 µM
38. CNc1ncnc2c1ncn2[C@@H]1O[C@H](COC)[C@@H](O)[C@H]1O [Compound 25, N^6, 5'-O-Dimethyladenosine]  359 µM
39. CNc1nc(C)nc2c1ncn2[C@@H]1O[C@H](COC)[C@@H](O)[C@H]1O [Compound 34, 2,N^6,5'-O-Trimethyladenosine]  359 µM
40. CO[C@H]1[C@@H](O)[C@H](n2cnc3c(N)ncnc32)O[C@@H]1CO [Compound 2, 3'-O-Methyladenosine]  493 µM
41. CO[C@@H]1[C@H](O)[C@@H](CO)O[C@H]1n1cnc2c(NC3CCCCC3)ncnc21 [Compound 73, N^6 -Cyclohexyl-2'-O-methyladenosine]  1030 µM

tested on: ischemic edema of hind paw of mice; experiment: Suppressive action against ischemic edema; assay type: in vivo, ICR-strain male mice; conditions: 10 mg/kg intravenous before ischemia; treated paw
Protocol: 4. Suppressive Action against Ischemic Edema
The right hind paw of ICR-strain male mice (11 weeks of age) were fastened with a rubber band to stop the blood stream for 20 minutes, and then the rubber band was removed to recover the blood stream. The tested drug was administered intravenously before the treatment. Each of the right and left hind paws were weighed and the suppressive action was measured according to the weight difference between the treated and untreated paws.

For `Oc1ncnc2[nH]ncc12` [Allopurinol], the “Paw Weight, Treated” value was 283.2 ± 6.3 mg.

same assay, conditions: 10 mg/kg intravenous before ischemia; untreated paw

With `Oc1ncnc2[nH]ncc12` [Allopurinol] the “Paw Weight, Untreated” value was 222.9 ± 6.9 mg.

same assay, conditions: 10 mg/kg intravenous; from weight difference between treated and untreated paws

With `Oc1ncnc2[nH]ncc12` [Allopurinol] the “Inhibition (of ischemic edema)” value was 36.4%.
